# Where “and” joins values, the source holds several entries; their conditions need not be identical. Identical values can stand only once.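 Grown in 96-well plates, cells were treated for 48 hours with each compound at five concentrations. Insufficient inhibition: endpoint recorded as highest concentration tested. The concentration for 50% growth inhibition is given as GI50. TGI: concentration producing complete growth inhibition.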
# What was measured:
# Test in all cases: inhibition of tumour cell growth, NCI panel, 48 h
# HCT-116 colon = test system: HCT-116 colon
# OVCAR-8 ovarian = test system: OVCAR-8 ovarian
# LOX IMVI melanoma = test system: LOX IMVI melanoma
# KM12 colon = test system: KM12 colon
# HOP-62 NSCLC = test system: HOP-62 NSCLC
# HOP-92 NSCLC = test system: HOP-92 NSCLC
# 786-0 renal = test system: 786-0 renal
# BT-549 breast = test system: BT-549 breast
# RPMI-8226 leukemia = test system: RPMI-8226 leukemia
# IGROV1 ovarian = test system: IGROV1 ovarian
Structure (SMILES),TGI (HCT-116 colon),TGI (OVCAR-8 ovarian),TGI (LOX IMVI melanoma),TGI (KM12 colon),TGI (HOP-62 NSCLC),TGI (HOP-92 NSCLC),TGI (786-0 renal),TGI (BT-549 breast),TGI (RPMI-8226 leukemia),TGI (IGROV1 ovarian),GI50 (HCT-116 colon),GI50 (OVCAR-8 ovarian),GI50 (LOX IMVI melanoma),GI50 (KM12 colon),GI50 (HOP-62 NSCLC),GI50 (HOP-92 NSCLC),GI50 (786-0 renal),GI50 (BT-549 breast),GI50 (RPMI-8226 leukemia),GI50 (IGROV1 ovarian)
Cc1noc(NC(=O)Nc2ccccc2F)c1C#N,> 43 µM,> 100 µM,> 100 µM,> 100 µM,> 100 µM,> 100 µM,> 47.1 µM,> 100 µM,> 100 µM,> 100 µM,,,,,,,,,,
COCCN(Cc1ccc(F)cc1)c1ccc(CO)c(Cl)c1,> 56.5 µM,> 100 µM,> 100 µM,> 100 µM,> 100 µM,60.1 µM,> 82.3 µM,> 100 µM,> 95.9 µM,3.7 µM,0.821 µM,29.9 µM,36.2 µM,33.8 µM,13.5 µM,8.16 µM,23.1 µM,40.4 µM,17.6 µM,0.559 µM
Nc1nccc(-c2c(-c3ccc(F)cc3)nn3cc(C(F)(F)F)ccc23)n1,> 25 µM,> 25 µM,> 25 µM,> 25 µM,> 25 µM,> 25 µM,> 25 µM,> 25 µM,> 25 µM,> 25 µM,> 25 µM,> 25 µM,> 25 µM,> 25 µM,> 21.9 µM,5.75 µM,> 25 µM,> 25 µM,> 25 µM,> 25 µM
COC12C(COC(=O)NCCO)C3=C(C(=O)C(C)=C(N)C3=O)N1CC1NC12 (stereo not drawn),114 µM,> 264 µM,64.7 µM,177 µM,74.7 µM and 139 µM,222 µM,> 264 µM,171 µM,> 264 µM,116 µM,35.1 µM,55 µM,22.2 µM,61.7 µM,28.4 µM,76.3 µM,41 µM,,,39.8 µM
Cc1cc(Br)c(NC(=O)c2c(-c3c(Cl)cccc3Cl)noc2C)c(Br)c1,> 100 µM,> 100 µM,> 100 µM,> 100 µM,> 100 µM,> 100 µM,> 100 µM,> 100 µM,> 100 µM,> 100 µM,> 100 µM,> 100 µM,> 100 µM,> 100 µM,30.8 µM,> 100 µM,> 100 µM,> 100 µM,> 100 µM,> 100 µM
COc1ccccc1CNCCN1C(=O)c2ccc3c4c(ccc(c24)C1=O)C(=O)N(CCNCc1ccccc1OC)C3=O,0.406 µM,0.505 µM,0.338 µM,0.35 µM,0.603 µM,4.38 µM,0.37 µM,1.64 µM,0.955 µM,0.549 µM,0.189 µM,0.215 µM,0.168 µM,0.165 µM,0.221 µM,1.71 µM,0.187 µM,0.502 µM,0.287 µM,0.203 µM
C#Cc1ccc(-n2c(/C=C/c3ccc(O)cc3)nc3ncccc3c2=O)cc1,> 100 µM,47 µM,> 100 µM,60.3 µM,55.7 µM,17.1 µM,50.4 µM,87.4 µM,> 100 µM,35.4 µM,5.07 µM,4.39 µM,5.35 µM,3.81 µM,5.66 µM,1.8 µM,4.88 µM,7.51 µM,3.41 µM,4.69 µM
COc1cc(-c2nccc3[nH]c(-c4ccc5cc[nH]c5c4)nc23)cc(OC)c1OC,1.13 µM,11.1 µM,1.5 µM,1.5 µM,2.67 µM,4.98 µM,2.03 µM,2.71 µM,5.16 µM,3.77 µM,< 0.01 µM,< 0.01 µM,< 0.01 µM,< 0.01 µM,< 0.01 µM,0.306 µM,< 0.01 µM,< 0.01 µM,0.0448 µM,0.015 µM
CC(=O)NC1C(O[C@H]2C[C@H]3[C@@H]4CC=C5C[C@@H](O)CC[C@]5(C)[C@H]4CC[C@]3(C)[C@H]2[C@H](C)C(=O)CCC(C)C)OCC(O)C1O (stereo partly drawn),5.82 µM,> 42.5 µM,5.79 µM,> 42.5 µM,8.31 µM,15.5 µM,2.21 µM,6.96 µM,2.06 µM,> 42.5 µM,1.39 µM,15.7 µM,1.45 µM,6.27 µM,2.18 µM,5.1 µM,0.553 µM,0.776 µM,0.593 µM,3.37 µM
